{"source": "patent US20240407991A1", "about": "“LOW PENETRATION SUNSCREEN COMPOSITIONS” (Johnson & Johnson Consumer Inc., priority 2023, published 2024)", "tested_on": "skin", "assay": "Skin permeation of UV filters and active agents after topical application", "details": "from Compositions 27 to 31, topically applied", "data": [{"smiles": "NC(=O)c1cccnc1", "note": "[niacinamide]", "values": [{"measurement": "skin permeation of cosmetically acceptable active agents", "result": "permeated the skin"}]}]}
